Experimental findings from patent publication US20050142534A1, “Methods and compositions related to a matrix chip” (priority 2003, published 2005) are described below.

Holding throughout (assay type): cell-based
Assay [1] deals with normal cells and abnormal cells. In words: Inverted slide-based nuclease digestion test with thiol reagent. Particulars: thiol reagent added to the treatment solution. Here is the method: Certain embodiments of the invention include a slide-based test. One example of a slide based test includes obtaining a test sample, (e.g., scraping cells off of their culture plates); suspending the sample in phosphate buffered saline (PBS); administering a drop of the cell suspension on a laminin coated slide. The sample administered to the coated slide is allowed to air dry (about 15 minutes). The dried slide is subjected to digestion with ALU (about 15 minutes). After digestion the slide is stained with ethidium bromide (1 minute) and imaged under fluorescence. Aside from being fast, this method is an improvement on standard “smear” methods (like Pap tests) in that it is insensitive to the air-drying artifacts that cause major problems with the standard methods and necessitate using preservatives and fixatives. An alternative sampling technique includes depositing cells by contacting the slide with a tissue block.
Thus, the result of the method is inverted. Inversion of the test can be produced by adding a thiol reagent such as DTT to the treatment solution.

The test system of assay [2] is normal vasculogenic endothelial cells. In words: Formation of vasculogenic cords by normal endothelial cells on matrix. Particulars: normal endothelial cells on thin and thick matrix; agent added to the culture medium. From the text:
With the specific exception of normal vasculogenic endothelial cells, normal cells and cancer cells of low invasive potential form clusters containing small numbers of cells when grown to less than confluent density on serum proteins absorbed to a solid support or on layers of extracellular matrix ranging from less than 50 microns to over 1000 microns in thickness. […] Normal vasculogenic […] cells grown to confluent density on absorbed serum proteins form characteristic “cobblestone” monolayers. These normal endothelial cells form distinctive cord-like structures when grown on thin matrix and networks of these cords when grown on thick matrix. The formation of these vasculogenic cords, which are known to be precursors to the formation of blood vessels, is prevented by the addition of anti-angiogenic agents such as the drug TNP-470 (a derivative of flimagillin) to the culture medium.

In assay [3] the test system is tumor cells grown on thin matrix. The assay can be described thus: Labeling of nuclei of tumor cells grown on thin matrix by DNA-binding agents. From the text: Rather, they form clusters or sheets of cells with no evidence of the formation of perfusion channels. […] […] These and other similar experiments reveal that polar agents such as bisbenzimide and doxorubicin are systematically excluded from the cells comprising tumor nests while these cells are accessible to neutral molecules of similar molecular weights.

The test system of assay [4] is invasive tumor cells forming tumor nests. The assay can be described thus: Labeling of nuclei of invasive tumor cells in tumor nests on thick matrix by DNA-binding agents. The conditions noted are these: even after prolonged exposure. From the text: Rather, they form clusters or sheets of cells with no evidence of the formation of perfusion channels. […] Invasive tumor cells grown in vitro on thick matrix and stained by the addition of bisbenzimide to the culture medium show staining restricted to the nuclei of the cells on the peripheries of the individual cell clusters forming the tumor nest. These and other similar experiments reveal that polar agents such as bisbenzimide and doxorubicin are systematically excluded from the cells comprising tumor nests while these cells are accessible to neutral molecules of similar molecular weights.

For another assay, the system named is tumor nest. In words: Perfusion of tumor nests by neutral fluorescent dyes and dextran conjugates. Particulars: microinjected into a sinusoid of a tumor nest; fluorescence microscopy. From the text:
Invasive tumor cells grown on thick layers of extracellular matrix protein form tumor nests in vitro and can be used as model systems for the evaluation of the efficacy of anti-cancer drugs against similar structures in vivo. Fluorescence microscopy images of a fluorescent dye Texas Red microinjected into a sinusoid of a tumor nest will typically show the movement of the dye into the perfusion channels between clumps of tumor cells in the tumor nest. […] This same pattern of perfusion is evident when neutral fluorescent dyes are applied to tissues or layers of matrix proteins containing tumor nests rather than being injected into the nests.

`O[C@@H](CS)[C@@H](O)CS` [DTT]: the “effect on result of nuclease digestion test” value in assay [1] is “normal cells remain intact and the abnormal cells are degraded”.

Consider `CO[C@@H]1[C@H](OC(=O)NC(=O)CCl)CC[C@]2(CO2)[C@H]1[C@@]1(C)O[C@@H]1CC=C(C)C` [TNP-470], for which, in assay [2], the “formation of vasculogenic cords” value is reported as “prevented”.

On to `CN1CCN(c2ccc3[nH]c(-c4ccc5[nH]c(-c6ccc(O)cc6)nc5c4)nc3c2)CC1` [bisbenzimide], for which the labeling of nuclei result is “rapidly and efficiently labeled” in assay [3]; “only the nuclei of cells on the peripheries of the tumor cell clusters forming the nests are labeled” in assay [4].

As to `COc1cccc2c1C(=O)c1c(O)c3c(c(O)c1C2=O)C[C@@](O)(C(=O)CO)C[C@@H]3O[C@H]1C[C@H](N)[C@H](O)[C@H](C)O1` [doxorubicin], the labeling of nuclei entry in assay [3] was “rapidly and efficiently labeled”; in assay [4], “only the nuclei of cells on the peripheries of the tumor cell clusters forming the nests are labeled”.

As to Texas Red, the “movement of dye into perfusion channels of tumor nest” value with tumor nest is listed as “the tumor nest is permeated by the dye”.
